This note sets out measurements from publication PMC139962 (Lipids in Health and Disease, 2002).

A word on the Ki: it is the equilibrium dissociation constant of an inhibitor or competing ligand from its target. Usually IC50 stands for the point on the concentration scale where inhibition reaches its midpoint. By Km is commonly meant the substrate concentration at which the rate is half of its maximum.

Where two headings read alike, the source gives them in different places.

Assay [1] concerns AEA membrane transporter (AMT). It counts as biochemical, human. Conditions: for Ki: read-out: Ki (inhibition of AMT); for inhibition of [3H]AEA uptake: 100 µM; for IC50: read-out: IC50 of inhibition of [3H]AEA uptake.
Assay [2] relates to AEA membrane transporter (AMT). As to the kind of experiment: [3H]AEA uptake by human healthy brain. The class given is biochemical. The note with it: for IC50: read-out: IC50 of inhibition of [3H]AEA uptake, 15 min at 37°C.
The subject of assay [3] is AEA membrane transporter (AMT). The assay is described as follows: [3H]AEA uptake by rat brain. Conditions: rat brain synaptosomes. It counts as biochemical.
Assay [4] deals with AEA membrane transporter (AMT). As to the kind of experiment: [3H]AEA uptake by mouse brain. It counts as biochemical. Conditions: mouse brain synaptosomes.

For the compound `CCCCC/C=C\C[C@@H](O)/C=C/C=C/C=C\[C@@H](O)CCCC(=O)O` [leukotriene B4], the “effect on accumulation of 200 nM [3H]AEA” value in assay [1] is recorded as “not affected”.

Turning to `CCCCC/C=C\C/C=C\C/C=C\C/C=C\CCCC(=O)O` [arachidonic acid], the “effect on accumulation of 200 nM [3H]AEA” value in assay [1] was “ineffective”.

`NC(=O)CCC(N)C(=O)O` (stereo in doubt) [D-Glutamine]: the Ki in assay [1] came out at 0.525 ± 0.05 µM.

As to `O=C(O)CI` [iodoacetic acid], the “inhibition of [3H]AEA uptake” value in assay [1] was ~ 50%.

For `N[C@H](CCC(=O)O)C(=O)O` [D-Glutamate], in assay [1], the Ki turned out to be 1.23 ± 0.11 µM.

With `N[C@@H](CCC(=O)O)C(=O)O` [L-Glutamate], the inhibition constant (Ki) in assay [1] amounted to 4 ± 0.37 µM.

In the case of `CCCCC/C=C\C/C=C\C/C=C\C/C=C\CCCC(=O)Nc1ccc(O)cc1` [AM404, N-(4-hydroxyphenyl)-arachidonoylamide], the IC50 in assay [2] (HB synaptosomes) and in assay [1] was approximately 7 µM in each case.

On to `NCCO` [ethanolamine], for which, in assay [1], the “effect on accumulation of 200 nM [3H]AEA” value is “ineffective”.

As for `O=S(=O)(F)Cc1ccccc1` [PMSF, phenylmethylsulfonyl fluoride], in assay [1], the “inhibition of [3H]AEA uptake” value is ~ 50%.

With `NC(=O)CC[C@H](N)C(=O)O` [L-Glutamine], the Ki in assay [1] came to 1.1 ± 0.09 µM.

Regarding `CCN1C(=O)C=CC1=O` [N-ethylmaleimide], in assay [1], the “inhibition of [3H]AEA uptake” value is reported as ~ 50%.

For `CCCCC/C=C\C/C=C\C/C=C\C/C=C\CCCC(=O)OC(CO)CO` [2-AG, 2-arachidonoylglycerol], in assay [1], the “effect on accumulation of 200 nM [3H]AEA” value was “inhibited almost completely”.

Consider `CCCCC/C=C\C/C=C\C/C=C\C/C=C\CCCC(=O)Nc1ccc(O)cc1C` [VDM11], for which the IC50 in assay [2] (HB synaptosomes) and in assay [1] was approximately 7 µM each time.

Turning to `N=c1c[n+](N2CCOCC2)[n-]o1` [SIN-1, 3-morpholinosydnonimine], the “enhancement of [3H]AEA uptake” value in assay [1] was 180–220%.

Turning to `CCCCC/C=C\C/C=C\C/C=C\C/C=C\CCCC(=O)NCCO` [AEA, N-arachidonoylethanolamine], the “Q10 (ratio of AEA uptake at 30°C and 20°C)” value in assay [2] (HB synaptosomes) and in assay [1] was ~ 1.5 each time. For the same compound, the “Vmax of AEA uptake” value in assay [2] (human healthy brain synaptosomes, 15 min, 0-1000 nM [3H]AEA, 37°C minus 4°C) stood at 374 ± 38 pmol/min per mg protein; in assay [3] it was 357 ± 18 pmol/min per mg protein; in assay [4], 370 ± 23 pmol/min per mg protein; in assay [1] it was 219 ± 19 pmol/min per mg protein. The values for the Km in assay [3] (read-out: Km of AEA uptake), in assay [4] (read-out: Km of AEA uptake) and in assay [1] (read-out: apparent Km of AEA uptake) were 0.483 ± 0.052 µM, 0.66 ± 0.08 µM and 0.793 ± 0.128 µM, respectively. For the same compound, the “effect on accumulation of 200 nM [3H]AEA” value in assay [1] is reported as “fully inhibited”.

On to `CCCCC[C@H](O)/C=C/[C@H]1[C@H](O)CC(=O)[C@@H]1C/C=C\CCCC(=O)O` [prostaglandin E2], for which the “effect on accumulation of 200 nM [3H]AEA” value in assay [1] is reported as “not affected”.
